Values joined by “and” are separate entries in the source; they are usually repeats but may differ in a detail not shown here. Equal values may be shown once. Where a name gives a salt, the structure may show the parent alone.
Target: Nischarin (Rattus norvegicus, UniProt Q4G017)
Sequence (Q4G017 whole entry): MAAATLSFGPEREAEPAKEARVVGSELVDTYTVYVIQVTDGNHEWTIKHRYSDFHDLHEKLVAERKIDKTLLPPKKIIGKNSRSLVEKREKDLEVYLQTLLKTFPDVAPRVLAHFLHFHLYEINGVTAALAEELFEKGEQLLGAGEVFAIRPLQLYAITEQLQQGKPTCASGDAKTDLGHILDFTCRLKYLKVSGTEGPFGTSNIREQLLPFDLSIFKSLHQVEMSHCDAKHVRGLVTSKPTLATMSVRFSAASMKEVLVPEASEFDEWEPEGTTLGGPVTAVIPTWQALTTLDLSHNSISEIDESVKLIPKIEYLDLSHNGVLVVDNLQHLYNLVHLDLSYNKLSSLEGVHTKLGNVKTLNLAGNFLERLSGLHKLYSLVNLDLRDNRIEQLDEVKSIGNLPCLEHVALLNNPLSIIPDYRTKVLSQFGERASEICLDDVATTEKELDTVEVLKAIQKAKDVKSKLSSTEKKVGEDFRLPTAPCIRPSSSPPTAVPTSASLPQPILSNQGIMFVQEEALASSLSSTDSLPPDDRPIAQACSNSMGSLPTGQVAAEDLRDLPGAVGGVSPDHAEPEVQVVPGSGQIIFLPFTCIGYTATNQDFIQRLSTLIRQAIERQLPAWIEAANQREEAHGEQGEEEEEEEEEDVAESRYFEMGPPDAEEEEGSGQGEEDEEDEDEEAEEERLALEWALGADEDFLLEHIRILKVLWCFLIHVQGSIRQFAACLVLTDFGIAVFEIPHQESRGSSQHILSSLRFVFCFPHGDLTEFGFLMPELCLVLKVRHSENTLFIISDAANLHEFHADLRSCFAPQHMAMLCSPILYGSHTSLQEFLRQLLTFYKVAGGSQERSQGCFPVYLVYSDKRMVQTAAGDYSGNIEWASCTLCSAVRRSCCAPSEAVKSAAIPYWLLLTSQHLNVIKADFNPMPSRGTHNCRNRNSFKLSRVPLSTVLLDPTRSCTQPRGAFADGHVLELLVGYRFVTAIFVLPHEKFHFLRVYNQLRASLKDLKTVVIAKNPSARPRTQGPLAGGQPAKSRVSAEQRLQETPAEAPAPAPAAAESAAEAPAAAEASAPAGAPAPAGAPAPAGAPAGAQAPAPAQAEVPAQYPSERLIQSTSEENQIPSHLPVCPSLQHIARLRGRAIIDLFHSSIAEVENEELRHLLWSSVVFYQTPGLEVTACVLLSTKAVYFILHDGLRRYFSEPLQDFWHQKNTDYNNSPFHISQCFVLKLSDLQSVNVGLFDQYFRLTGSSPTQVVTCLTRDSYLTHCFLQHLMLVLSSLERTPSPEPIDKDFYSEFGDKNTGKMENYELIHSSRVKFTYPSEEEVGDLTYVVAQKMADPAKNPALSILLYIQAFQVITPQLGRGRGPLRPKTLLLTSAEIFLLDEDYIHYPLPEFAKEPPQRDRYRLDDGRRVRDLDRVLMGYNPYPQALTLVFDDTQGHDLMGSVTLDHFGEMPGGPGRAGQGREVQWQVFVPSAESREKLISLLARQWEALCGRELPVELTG

| Compound | Ki |
| --- | --- |
| CN/C([CH-][N+](=O)[O-])=[NH+]\CCSCc1ccc(CN(C)C)o1 | > 10 µM |
| N=C(N)NCCCCN | > 10 µM |
| Clc1cccc(Cl)c1N=C1NCCN1 [2-(2,6-dichloroanilino)-2-imidazoline] | 2.52 µM and > 10 µM |
| O=C(CCCN1CCC(O)(c2ccc(Cl)cc2)CC1)c1ccc(F)cc1 [4-[4-(4-Chloro-phenyl)-4-hydroxy-piperidin-1-yl]-1-(4-fluoro-phenyl)-butan-1-one;propionate(HCl)] | 0.5 µM |
| COc1nc(C)nc(Cl)c1N=C1NCCN1 [(4-Chloro-6-methoxy-2-methyl-pyrimidin-5-yl)-imidazolidin-2-ylidene-amine] | > 10 µM |
| C[C@]12NC(Cc3ccccc31)c1ccccc12 [(5S,10S)-(+)-5-methyl-10,11-dihydro-5Hdibenzo[a,d]cyclohepten-5,10-imine] | > 10 µM |
| Cc1ccccc1NC(=N)Nc1ccccc1C [CAS_97-39-2] | 0.93 µM |
| CCCN1CCC[C@@H](c2cccc(O)c2)C1 [Preclamol] | > 10 µM |
| CC(C)=CCN1CC[C@@]2(C)c3cc(O)ccc3C[C@@H]1[C@@H]2C [Talwin] | > 10 µM |
| NCCc1c[nH]cn1 [[3H]histamine] | > 10 µM |
| COC(=O)[C@@H]1[C@H]2C[C@H]3c4[nH]c5ccccc5c4CCN3C[C@@H]2CC[C@@H]1O [yohimbic acid methyl ester] | > 10 µM |
